This is an account of results in EP4653437A2 (Innovo Therapeutics Inc., priority 2023, dated 2024).

pIC50: −log10 of the molar value.

One assay deals with T1, human 15-PGDH (Homo sapiens, UniProt P15428).
T1 construct: purchased R&D System 5660-DH
T1 sequence (P15428 1-266): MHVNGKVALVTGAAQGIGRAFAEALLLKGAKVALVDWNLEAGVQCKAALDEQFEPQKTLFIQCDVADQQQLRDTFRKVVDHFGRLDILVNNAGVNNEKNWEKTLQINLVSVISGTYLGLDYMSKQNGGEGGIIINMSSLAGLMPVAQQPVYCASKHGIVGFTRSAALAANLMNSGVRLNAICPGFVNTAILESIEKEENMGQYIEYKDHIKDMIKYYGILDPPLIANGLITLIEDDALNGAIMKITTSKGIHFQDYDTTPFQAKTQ
Briefly: Evaluation of 15-PGDH inhibitory activity (fluorescence enzyme assay, NAD+/PGE2). The format is biochemical. Conditions: human 15-PGDH enzyme, fluorescence Vmax. On the procedure:
15-PGDH inhibition activity of Example compounds was measured as follows. 6.7 ng of human 15-PGDH (R&D System# 5660-DH) enzyme (10 µL) was added to a black 96 well plate, 60 µL of buffer (50 mM Tris-HCl, pH 7.5, 0.01% Tween 20) was added, and 10 µL of 200 µM β-Nicotinamide adenine dinucleotide sodium salt (Sigma, Cat# N0632-5G) was added. 10 µL of (10x) compound solution in DMSO was added and reacted for 10 minutes at room temperature.

For a further assay, the system named is A549 cells. Put plainly: Measurement of PGE2-increasing activity in A549 cells (IL-1β stimulated, PGE2 quantified in supernatant). The settings on record: for fold induction at 1 µM: Homo sapiens, 24 h, concentration of 1 µM of each compound, IL-1β treated A549 cells, read-out: Increased PGE2 production in A549 cells. The format is cell-based. A digest of the protocol:
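A549 cells grown 24 h in F12K with 10% FBS, then switched to serum-free medium with or without IL-1β and compound (0.1% DMSO final). After 24 h at 37 °C, 5% CO2, supernatant PGE2 quantified by immunoassay.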

On to `O=C1NCc2ccc(-c3cccc4c(C(=O)N5CC6(C5)CC(F)(F)C6)cnn34)cc21` [Example 412, 6-(3-(6,6-difluoro-2-azaspiro[3.3]heptane-2-carbonyl)pyrazolo[1,5-a]pyridin-7-yl)isoindolin-1-one], for which the negative-log IC50 (pIC50) against human 15-PGDH was ≥ 7.00. For the same molecule, in the assay with A549 cells, the fold induction at 1 µM was > 1.5.
As for `N#Cc1ncc(-c2cccc3c(C(=O)N4CCCCC4)cnn23)cn1` [Example 293, 5-[3-(piperidine-1-carbonyl)pyrazolo[1,5-a]pyridin-7-yl]pyrimidine-2-carbonitrile], on human 15-PGDH, the pIC50 is ≥ 7.00. Also, the fold induction at 1 µM with A549 cells was > 1.5.
Consider `O=C(c1cnn2c(-c3ccc(N4CC5CCC4CC5)nc3)cccc12)N1CCCCC1` [Example 216, (7-(6-(2-azabicyclo[2.2.2]octan-2-yl)pyridin-3-yl)pyrazolo[1,5-a]pyridin-3-yl)(piperidin-1-yl)methanone], for which the pIC50 against human 15-PGDH is ≥ 7.00. Moreover, in the assay with A549 cells, the fold induction at 1 µM was > 1.5.
With `O=C(c1cncc(-c2cccc3c(C(=O)N4CCCCC4)cnn23)c1)N1CC(O)C1` [Example 42, (3-hydroxyazetidin-1-yl)(5-(3-(piperidine-1-carbonyl)pyrazolo[1,5-a]pyridin-7-yl)pyridin-3-yl)methanone], the negative-log IC50 (pIC50) against human 15-PGDH was ≥ 7.00. Moreover, the fold induction at 1 µM in the assay with A549 cells is > 1.5.
The like results for `CC1CCCN(C(=O)c2cnn3c(-c4ccc5c(c4)C(=O)NC5)cccc23)C1` (centres unmarked) [Example 387, 6-(3-(3-methylpiperidine-1-carbonyl)pyrazolo[1,5-a]pyridin-7-yl)isoindolin-1-one] were, in that order, ≥ 7.00 and > 1.5.
The like results for `N#Cc1ncc(-c2cccc3c(C(=O)N4CCCCC4)cnn23)cc1F` [Example 205, 3-fluoro-5-[3-(piperidine-1-carbonyl)pyrazolo[1,5-a]pyridin-7-yl]pyridine-2-carbonitrile] were, in that order, ≥ 7.00 and > 1.5.
The like results for `O=C(O)c1ccc(-c2cccc3c(C(=O)N4CCCCC4)cnn23)cc1` [Example 10, 4-(3-(piperidine-1-carbonyl)pyrazolo[1,5-a]pyridin-7-yl)benzoic acid] were, in that order, ≥ 7.00 and < 1.5.
As for `O=C(c1cnn2c(-c3cnc(Cl)c(F)c3)cccc12)N1CCCCC1` [Example 281, (7-(6-chloro-5-fluoropyridin-3-yl)pyrazolo[1,5-a]pyridin-3-yl)(piperidin-1-yl)methanone], the pIC50 against human 15-PGDH was ≥ 7.00. Further, the fold induction at 1 µM in the assay with A549 cells is > 1.5.
The like results for `O=C(c1cnn2c(-c3ccc(O)c(Cl)c3)cccc12)N1CCCCC1` [Example 21] were, in that order, ≥ 7.00 and > 1.5.
The like results for `O=C1NCc2ccc(-c3cccc4c(C(=O)N5CC6(CCC6)C5)cnn34)cc21` [Example 390, 6-(3-(2-azaspiro[3.3]heptane-2-carbonyl)pyrazolo[1,5-a]pyridin-7-yl)isoindolin-1-one] were, in that order, ≥ 7.00 and > 1.5.
The like results for `O=C(c1cnn2c(-c3ccc([N+](=O)[O-])nc3)cccc12)N1CCCCC1` [Example 16, (7-(6-nitropyridin-3-yl)pyrazolo[1,5-a]pyridin-3-yl)(piperidin-1-yl)methanone] were, in that order, ≥ 7.00 and > 1.5.
In the case of `O=C(c1cnn2c(-c3ccc(N4CC5(CCC5)C4)nc3)cccc12)N1CCCCC1` [Example 220, (7-(6-(2-azaspiro[3.3]heptan-2-yl)pyridin-3-yl)pyrazolo[1,5-a]pyridin-3-yl)(piperidin-1-yl)methanone], the pIC50 at human 15-PGDH is ≥ 7.00. The fold induction at 1 µM with A549 cells was > 1.5.
The like results for `O=C(c1cnn2c(-c3cc(F)cc(-c4noc(=O)[nH]4)c3)cccc12)N1CCCCC1` [Example 299, 3-(3-fluoro-5-(3-(piperidine-1-carbonyl)pyrazolo[1,5-a]pyridin-7-yl)phenyl)-1,2,4-oxadiazol-5(4H)-one] were, in that order, ≥ 7.00 and > 1.5.
With `Cc1nc(-c2ncc(-c3cccc4c(C(=O)N5CCCCC5)cnn34)cc2F)no1` [Example 263, [7-[5-fluoro-6-(5-methyl-1,2,4-oxadiazol-3-yl)-3-pyridyl]pyrazolo[1,5-a]pyridin-3-yl]-(1-piperidyl)methanone], the pIC50 at human 15-PGDH is ≥ 7.00. The fold induction at 1 µM with A549 cells is > 1.5.
As to `O=C(c1cnn2c(-c3ccc(-c4ccsc4)cc3)cccc12)N1CCCCC1` [Example 347, 1-piperidyl-[7-[4-(3-thienyl)phenyl]pyrazolo[1,5-a]pyridin-3-yl]methanone], the pIC50 against human 15-PGDH is ≥ 7.00. In the assay with A549 cells, the fold induction at 1 µM is < 1.5.
With `CCCCC(=O)c1cnn2c(-c3cnc4ccccc4c3)cccc12` [Example 151, 1-(7-(quinolin-3-yl)pyrazolo[1,5-a]pyridin-3-yl)pentan-1-one], on human 15-PGDH, the pIC50 is ≥ 7.00. The fold induction at 1 µM with A549 cells is > 1.5.
For `O=C1NCc2ccc(-c3cccc4c(C(=O)N5CC=CCC5)cnn34)cc21` [Example 401, 6-(3-(1,2,3,6-tetrahydropyridine-1-carbonyl)pyrazolo[1,5-a]pyridin-7-yl)isoindolin-1-one], the pIC50 against human 15-PGDH was ≥ 7.00. For the same molecule, the fold induction at 1 µM in the assay with A549 cells was > 1.5.
The like results for `Nc1nc(-c2ccc(-c3cccc4c(C(=O)N5CCCCC5)cnn34)cc2)no1` [Example 359, [7-[4-(5-amino-1,2,4-oxadiazol-3-yl)phenyl]pyrazolo[1,5-a]pyridin-3-yl]-(1-piperidyl)methanone] were, in that order, ≥ 7.00 and > 1.5.
As for `O=C(c1cnn2c(-c3ccc(-c4n[nH]c(=O)o4)cc3)cccc12)N1CCCCC1` [Example 349, 5-[4-[3-(piperidine-1-carbonyl)pyrazolo[1,5-a]pyridin-7-yl]phenyl]-3H-1,3,4-oxadiazol-2-one], the pIC50 against human 15-PGDH is ≥ 7.00. Also, the fold induction at 1 µM in the assay on A549 cells is > 1.5.
Consider `COCCNC(=O)c1ccc(-c2cccc3c(C(=O)N4CCCCC4)cnn23)cn1` [Example 78, N-(2-methoxyethyl)-5-(3-(piperidine-1-carbonyl)pyrazolo[1,5-a]pyridin-7-yl)picolinamide], for which the pIC50 at human 15-PGDH was ≥ 7.00. Also, the fold induction at 1 µM with A549 cells was > 1.5.
The like results for `O=C(c1cnn2c(NCc3ccc(Cl)cc3)cccc12)N1CCCCC1` [Example 238, [7-[(4-chlorophenyl)methylamino]pyrazolo[1,5-a]pyridin-3-yl]-(1-piperidyl)methanone] were, in that order, ≥ 7.00 and > 1.5.
Take `Cc1nnc(-c2ncc(-c3cccc4c(C(=O)N5CCCCC5)cnn34)cc2F)o1` [Example 379, [7-[5-fluoro-6-(5-methyl-1,3,4-oxadiazol-2-yl)-3-pyridyl]pyrazolo[1,5-a]pyridin-3-yl]-(1-piperidyl)methanone]: the pIC50 against human 15-PGDH was ≥ 7.00. For the same molecule, in the assay with A549 cells, the fold induction at 1 µM is > 1.5.
The like results for `O=C1NCCc2ccc(-c3cccc4c(C(=O)N5CCC(F)CC5)cnn34)cc21` [Example 154, 7-(3-(4-fluoropiperidine-1-carbonyl)pyrazolo[1,5-a]pyridin-7-yl)-3,4-dihydroisoquinolin-1(2H)-one] were, in that order, ≥ 7.00 and > 1.5.
Turning to `O=C(c1cnn2c(-c3cncc(-c4noc(=O)[nH]4)c3)cccc12)N1CCCCC1` [Example 297, 3-(5-(3-(piperidine-1-carbonyl)pyrazolo[1,5-a]pyridin-7-yl)pyridin-3-yl)-1,2,4-oxadiazol-5(4H)-one], the pIC50 on human 15-PGDH was ≥ 7.00. For the same molecule, the fold induction at 1 µM in the assay with A549 cells is < 1.5.
The like results for `N#Cc1cc(-c2cccc3c(C(=O)N4CCCCC4)cnn23)cc([N+](=O)[O-])c1` [Example 312, 3-nitro-5-(3-(piperidine-1-carbonyl)pyrazolo[1,5-a]pyridin-7-yl)benzonitrile] were, in that order, ≥ 7.00 and > 1.5.
For the molecule `COCCNC(=O)c1cccc(-c2cccc3c(C(=O)N4CCCCC4)cnn23)c1` [Example 30, N-(2-methoxyethyl)-3-(3-(piperidine-1-carbonyl)pyrazolo[1,5-a]pyridin-7-yl)benzamide], at human 15-PGDH, the negative logarithm of the IC50 (pIC50) is ≥ 7.00. In the assay with A549 cells, the fold induction at 1 µM was > 1.5.
Consider `O=C1CC(C(=O)Nc2ccc(-c3cccc4c(C(=O)N5CCCCC5)cnn34)cn2)CCN1` (centres unmarked) [Example 105, 2-oxo-N-(5-(3-(piperidine-1-carbonyl)pyrazolo[1,5-a]pyridin-7-yl)pyridin-2-yl)piperidine-4-carboxamide], for which the pIC50 against human 15-PGDH was ≥ 7.00. For the same molecule, the “Increased PGE2 production in A549 cells” value with A549 cells was “++ (key: +: 0 < PGE2 increasing ability < 1.5; ++: PGE2 increasing ability ≥ 1.5)”.
`CN(C)CC(=O)Nc1cncc(-c2cccc3c(C(=O)N4CCCCC4)cnn23)c1` [Example 196, 2-(dimethylamino)-N-(5-(3-(piperidine-1-carbonyl)pyrazolo[1,5-a]pyridin-7-yl)pyridin-3-yl)acetamide]: on human 15-PGDH, the negative-log IC50 (pIC50) is ≥ 7.00. Moreover, the fold induction at 1 µM in the assay on A549 cells was > 1.5.

The term pIC50 denotes −log10 of the IC50, conventionally taken in molar units. Read a high pIC50 as a small IC50.
